Assay results taken from PubChem BioAssay (NCI).
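Grown in 96-well plates, cells were treated for 48 hours with each compound at five concentrations. Insufficient inhibition: endpoint recorded as highest concentration tested. At the GI50, growth is halved. TGI: concentration producing complete growth inhibition.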

Tests used:
Assay in all cases: NCI tumour cell line growth inhibition, 48 h
SN12C renal = tested on: SN12C renal
SK-MEL-2 melanoma = tested on: SK-MEL-2 melanoma
SW-620 colon = tested on: SW-620 colon
MCF7 breast = tested on: MCF7 breast
NCI-H23 lung = tested on: NCI-H23 lung
PC-3 prostate = tested on: PC-3 prostate
HCC-2998 colon = tested on: HCC-2998 colon
MOLT-4 leukemia = tested on: MOLT-4 leukemia
A549 NSCLC = tested on: A549 NSCLC
BT-549 breast = tested on: BT-549 breast

SMILES	TGI (SN12C renal) [µM]	TGI (SK-MEL-2 melanoma) [µM]	TGI (SW-620 colon) [µM]	TGI (MCF7 breast) [µM]	TGI (NCI-H23 lung) [µM]	TGI (PC-3 prostate) [µM]	TGI (HCC-2998 colon) [µM]	TGI (MOLT-4 leukemia) [µM]	TGI (A549 NSCLC) [µM]	TGI (BT-549 breast) [µM]	GI50 (SN12C renal) [µM]	GI50 (SK-MEL-2 melanoma) [µM]	GI50 (SW-620 colon) [µM]	GI50 (MCF7 breast) [µM]	GI50 (NCI-H23 lung) [µM]	GI50 (PC-3 prostate) [µM]	GI50 (HCC-2998 colon) [µM]	GI50 (MOLT-4 leukemia) [µM]	GI50 (A549 NSCLC) [µM]	GI50 (BT-549 breast) [µM]
COc1ccc([C@H]2[C@H]3COC(=O)[C@H]3C(C#N)=C3Sc4ccccc4N32)cc1	36.4	56.7	> 100	> 100	78.8	> 100	> 100	> 67.7	> 100	48.9	–	–	–	–	–	–	–	–	–	–
COC(=O)Cc1cc(O)c2c(c1O)C(=O)c1ccccc1C2=O	> 100	> 100	> 100	> 56.3	> 100	> 100	> 100	> 100	> 100	> 100	–	–	–	–	–	–	–	–	–	–
CC(=O)Nc1ccc2c(C)c3c(nc2n1)[nH]c1ccccc13	> 100	55.5	> 100	> 100	91.1	> 100	76.1	53.6	> 100	80.2	–	–	–	–	–	–	–	–	–	–
S=C1c2ccc(Cl)cc2-n2cnnc2C2CSCN12 (configuration not stated)	> 100	> 100	> 100	> 100	–	> 100	> 100	> 100	> 100	> 100	–	–	–	–	–	–	–	–	–	–
COc1cccc(N2C(=O)CSC2c2cccc(Oc3ccccc3)c2)c1 (configuration not stated)	25	16.3	> 100	7.13	> 100	> 100	7.23	28.4	> 100	45.6	–	–	–	–	–	–	–	–	–	–
COC1CC(N)(c2ccccc2)C(O)C(C)O1 (configuration not stated)	> 100	> 100	> 100	> 100	> 100	> 100	> 100	> 100	> 100	> 100	–	–	–	–	–	–	–	–	–	–
CN1CCC(CNc2cc(C3(C(=O)Nc4cc(C(=O)Nc5ccc(Cl)c(C(F)(F)F)c5)ccc4F)CC3)ncn2)CC1	8.92	4.02	5.32	5.24	4.57	3.3	5.22	6.09	5.54	9.89	2.56	1.9	2.54	1.97	1.94	1.04	2.39	2.03	2.29	3.01
Cn1c(=O)c2c(nc3n(CC(O)CCl)c(=O)ccn23)n(C)c1=O (configuration not stated)	> 100	> 100	> 100	> 100	> 100	> 100	> 100	92.1	> 100	> 100	–	–	–	–	–	–	–	–	–	–
CCOC(=O)c1c(C)n(Cc2ccc(Cl)cc2Cl)c2c1cc(O)c1[nH]c3c(c12)CCCC3	58.6	60.9	> 100	52	77.6	40.9	63	29.4	> 100	41.3	–	–	–	–	–	–	–	–	–	–
Cc1ccc(Nc2nc3[nH]ccc3c(=O)[nH]2)cc1	> 100	> 100	> 100	> 100	> 100	> 100	> 100	> 100	> 100	> 100	–	–	–	–	–	–	–	–	–	–
CN(C)CC(O)c1ccc(Cl)c2ccccc12 (configuration not stated)	> 100	39.7	> 100	> 81.8	> 100	> 72.3	29.9	55.8	> 100	> 100	–	–	–	–	–	–	–	–	–	–
O=[N+]([O-])c1ccccc1OCCOc1ccccc1[N+](=O)[O-]	> 100	> 100	> 100	> 100	> 100	> 100	> 100	> 100	> 100	> 100	–	–	–	–	–	–	–	–	–	–
Nc1n(CC(=O)c2ccccc2)nc2sc(-c3ccccc3)n[n+]12	> 100	> 100	36.6	> 100	59.5	78.8	25	> 100	90.6	> 100	–	–	–	–	–	–	–	–	–	–
CCc1n[nH]c(=O)n1CCCCCCCCCCCCn1c(CC)n[nH]c1=O	> 100	> 100	> 100	> 100	94.4	> 100	> 100	67.7	> 100	77.5	–	–	–	–	–	–	–	–	–	–
CC(C)(C)c1ccc(OCCOc2ccc(C(C)(C)C)cc2N)c(N)c1	> 100	> 100	> 100	> 100	> 100	> 100	> 100	> 100	> 100	> 100	–	–	–	–	–	–	–	–	–	–
CC(=O)NC1C(OCc2ccccc2)OC(CO)C(O)C1OCC(=O)N1CCCC1C(=O)N[C@@H](CCC(=O)NCCCCNc1c2ccccc2nc2cccc([N+](=O)[O-])c12)C(N)=O (some centres not stated)	> 100	32.7	65.7	53.8	40.8	60.3	52.4	> 100	37.8	43.7	–	–	–	–	–	–	–	–	–	–
O=C1c2cccc([N+](=O)[O-])c2C(=O)N1Cc1ccccc1	> 100	> 100	> 100	> 100	> 100	> 100	> 100	> 100	> 100	> 100	–	–	–	–	–	–	–	–	–	–
CCN(CCCOc1ccccc1)CCN(CC)CCCOc1ccccc1	44.8	32.3	70.5	57.3	40.6	5.14	48.4	16.8	28.7	29.1	–	–	–	–	–	–	–	–	–	–
CC(C)(C)c1ccccc1N1C(=O)c2ccc3c4c(ccc(c24)C1=O)N(c1ccccc1C(C)(C)C)C3=O	> 100	> 100	> 100	> 100	> 100	> 100	> 100	> 100	> 100	> 100	–	–	–	–	–	–	–	–	–	–
CC(=O)c1c(-c2cccc3ccccc23)c(C#N)c(=S)n(C2OC(CO)C(O)C(O)C2O)c1C (configuration not stated)	> 100	> 100	> 100	> 100	> 100	> 100	> 100	> 100	> 100	> 100	–	–	–	–	–	–	–	–	–	–

SMILES	TGI (SN12C renal) [µM]	TGI (SK-MEL-2 melanoma) [µM]	TGI (SW-620 colon) [µM]	TGI (MCF7 breast) [µM]	TGI (NCI-H23 lung) [µM]	TGI (PC-3 prostate) [µM]	TGI (HCC-2998 colon) [µM]	TGI (MOLT-4 leukemia) [µM]	TGI (A549 NSCLC) [µM]	TGI (BT-549 breast) [µM]	GI50 (SN12C renal) [µM]	GI50 (SK-MEL-2 melanoma) [µM]	GI50 (SW-620 colon) [µM]	GI50 (MCF7 breast) [µM]	GI50 (NCI-H23 lung) [µM]	GI50 (PC-3 prostate) [µM]	GI50 (HCC-2998 colon) [µM]	GI50 (MOLT-4 leukemia) [µM]	GI50 (A549 NSCLC) [µM]	GI50 (BT-549 breast) [µM]
COc1ccc2c(c1)C(=O)CC1c3cnccc3C(=O)N21 (configuration not stated)	> 100	> 100	> 100	> 100	> 100	> 100	> 100	> 100	> 100	> 100	–	–	–	–	–	–	–	–	–	–
Oc1cc(Cc2ccccc2)c(Cc2ccccc2)cc1O	> 10	> 10	> 10	> 10	> 10	> 10	> 10	> 10	> 10	> 10	–	–	–	–	–	–	–	–	–	–
CC(C)=CCN1c2ccccc2NC(=O)CC1C (configuration not stated)	81.2	> 100	> 100	> 100	> 100	> 100	> 100	> 100	> 100	55	–	–	–	–	–	–	–	–	–	–
O=c1[nH]cc(NCCCl)c(=O)[nH]1	> 100	> 100	> 100	> 100	> 100	> 100	> 100	> 100	> 100	> 100	–	–	–	–	–	–	–	–	–	–
CC(=O)O[C@H]1CC(C)(C)C(=C=C/C(C)=C/C=C/C=C/C=C(C)/C=C2C=C(/C=C/[C@@]34O[C@]3(C)C[C@@H](O)CC4(C)C)C(=O)O/2)[C@](C)(O)C1	35.8	17.6	> 100	20.7	18.1	15.9	> 100	24.1	50.2	8.16	–	–	–	–	–	–	–	–	–	–
O=C(Nc1ccc(N2C(=O)CSC2c2ccccc2O)cc1)c1ccc(N2C(=O)CSC2c2ccccc2O)cc1 (configuration not stated)	> 100	> 100	> 100	> 100	> 100	> 100	> 100	> 100	> 100	> 100	–	–	–	–	–	–	–	–	–	–
Cc1cc(C)nc(NS(=O)(=O)c2ccc(NC(=O)c3c4ccccc4nc4ccccc34)cc2)n1	> 100	> 100	> 100	> 100	> 100	> 100	> 100	> 100	> 100	> 100	–	–	–	–	–	–	–	–	–	–
OC1[C@@H]2[C@@H](O)CCCN2C[C@@H](O)[C@H]1O (some centres not stated)	> 100	> 100	> 100	> 100	> 100	> 100	> 100	> 100	> 100	> 100	–	–	–	–	–	–	–	–	–	–
O=c1[nH]c(Nc2ccccc2)nc2c1ncn2CC(O)CSCCO (configuration not stated)	> 100	> 100	> 100	> 100	> 100	> 100	> 100	> 100	> 100	> 100	–	–	–	–	–	–	–	–	–	–
N#Cc1c(-c2ccc(Cl)cc2)c2c(nn3c4ccc5ccccc5c4nnc23)[nH]c1=O	12.2	5.77	11.4	14.8	4.56	7	8.87	> 46.4	20.8	2.92	–	–	–	–	–	–	–	–	–	–
CCC/C(Cl)=N\OC(=O)Nc1ccc(F)cc1	31	34.8	27.2	> 55	41.2	31.2	32.4	14.9	> 100	28.4	–	–	–	–	–	–	–	–	–	–
C=CCSC1=N/C(=C\c2ccc(Cl)cc2)C(=O)N1CC=C	95.1	76	> 100	46.2	> 100	54.2	> 100	–	> 100	76.2	–	–	–	–	–	–	–	–	–	–
CC(C)/C(Cl)=N/OC(=O)Nc1ccc(Br)cc1	4.62	31.5	4.6	24.9	26.5	26.7	29.4	5.45	39.5	9.19	–	–	–	–	–	–	–	–	–	–
COc1ccc(N2C(=O)C3c4[nH]c5ccc(OCc6ccccc6)cc5c4C4CCC(c5ccccc5)CC4C3C2=O)cc1 (configuration not stated)	> 100	68	4.61	> 75	32.4	96.5	> 100	> 36.8	> 39	17	–	–	–	–	–	–	–	–	–	–
O=C(O)CC(Cc1ccccc1Cl)C(=O)O (configuration not stated)	> 100	> 100	> 100	> 100	> 100	> 100	> 100	> 100	> 100	> 100	–	–	–	–	–	–	–	–	–	–
C[C@@H]1OC(=O)C[C@H]2CC(=O)N(CCC3CN(C(=O)OCc4ccccc4)c4ccccc43)C[C@@H]21 (some centres not stated)	–	> 100	> 100	> 100	> 100	> 100	> 100	> 100	> 100	> 100	–	–	–	–	–	–	–	–	–	–
COC(=O)C1=C(O)C(C(=O)OC)C2CC(=O)CC1C2(C)C (configuration not stated)	> 100	> 100	> 100	> 100	> 100	> 100	> 100	> 100	> 100	> 100	–	–	–	–	–	–	–	–	–	–
c1ccc(/C(=N/Nc2nc3ccccc3s2)C2CCCCC2)nc1	22.7	32.3	20.1	6.01	21.8	24.3	0.0519	27.8	76.1	35.1	–	–	–	–	–	–	–	–	–	–
O=C(O)CCc1nc2c(n1-c1ccccc1)C(=O)c1ccccc1C2=O	> 100	> 100	> 100	> 100	> 100	> 100	> 100	> 100	> 100	> 100	–	–	–	–	–	–	–	–	–	–
C=CCOC(=O)N1c2ccc(O[Si](C)(C)C(C)(C)C)cc2[C@@]23O[C@@]24[C@@H]1C#C/C=C\C#C[C@]3(O)C(OC)(OC)C[C@@H]4C	> 100	> 100	> 100	> 92.4	> 100	> 100	> 100	> 42.9	> 100	> 100	–	–	–	–	–	–	–	–	–	–
